We go through 6 compounds from PubChem BioAssay AID1963431 (Molecular Pharmacology Branch, DTP, NCI, 2024).

The test has as its system Rh18 complex spheroid viability, percent test/control. Briefly: Anticancer human tumor Rh18 cell line growth inhibition [Asc].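 On all read-outs here: spheroids exposed to compound for 7 days.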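 On viability, T/C: 100% = DMSO vehicle control wells.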 The following applies: for viability, T/C: stronger effect = lower value. The procedure, abridged:
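Tumor cells were grown as complex spheroids with human endothelial cells (HUVEC) and human mesenchymal stem cells as stroma. Agents were tested alone and in combination, in half-log steps down from the clinical Cmax, or from 10 microM where Cmax was unknown.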

[1] abbreviates: curve of first compound, second compound 0.1 µM.
Where [2] appears, read: curve of first compound, second compound 0.316 µM.
Where [3] appears, read: curve of first compound, second compound 1 µM.
Where [4] appears, read: curve of first compound, second compound 3.16 µM.
Where [5] appears, read: curve of first compound, second compound 10 µM.
Setting [6] is: second compound 0.1 µM, first compound 0.0316 µM.
The mark [7] stands for this setting: second compound 0.1 µM, first compound 0.1 µM.
Where [8] appears, read: second compound 0.1 µM, first compound 0.316 µM.
The mark [9] stands for this setting: second compound 0.1 µM, first compound 1 µM.
[10] abbreviates: second compound 0.316 µM, first compound 0.0316 µM.
Setting [11] is: second compound 0.316 µM, first compound 0.1 µM.
Where [12] appears, read: second compound 0.316 µM, first compound 0.316 µM.
Where [13] appears, read: second compound 0.316 µM, first compound 1 µM.
The mark [14] stands for this setting: second compound 1 µM, first compound 0.0316 µM.
Setting [15] is: second compound 1 µM, first compound 0.1 µM.
The mark [16] stands for this setting: second compound 1 µM, first compound 0.316 µM.
Setting [17] is: second compound 1 µM, first compound 1 µM.
The mark [18] stands for this setting: second compound 3.16 µM, first compound 0.0316 µM.
Setting [19] is: second compound 3.16 µM, first compound 0.1 µM.
Where [20] appears, read: second compound 3.16 µM, first compound 0.316 µM.
The mark [21] stands for this setting: second compound 3.16 µM, first compound 1 µM.
The mark [22] stands for this setting: second compound 10 µM, first compound 0.0316 µM.
The mark [23] stands for this setting: second compound 10 µM, first compound 0.1 µM.
The mark [24] stands for this setting: second compound 10 µM, first compound 0.316 µM.
The mark [25] stands for this setting: second compound 10 µM, first compound 1 µM.

Where “and” joins values, the source holds several entries; their conditions need not be identical. Equal entries are not always repeated. Where only a bound is given, the exact number is not on record here.

With `CCN1CCN(Cc2ccc(Nc3ncc(F)c(-c4cc(F)c5nc(C)n(C(C)C)c5c4)n3)nc2)CC1`, the viability, T/C runs as follows: (compound 0.00316 µM) 88.8% and 66.9% and 96.3%; (compound 0.01 µM) 115% and 84.9% and 92.1%; (compound 0.0316 µM) 85.2% and 77.4% and 70.8%; (compound 0.1 µM) 66.5% and 65.2% and 78.4%; (compound 0.316 µM) 85.7% and 111% and 72.7%; (compound 1 µM) 143% and 152% and 65.1%. For the same compound, the IC50 (curve of compound) is greater than 1000 nM.
For `CNC(C)C(=O)NC1CN(S(=O)(=O)c2cccc(S(=O)(=O)N3CCC4CCC(C(=O)NC(c5ccccc5)c5ccccc5)N4C(=O)C(NC(=O)C(C)NC)C3)c2)CCC2CCC(C(=O)NC(c3ccccc3)c3ccccc3)N2C1=O` (centres undefined) + Cc1c(S(C)(=O)=O)c(-c2cc(F)cc(N3CCN(c4ccc(NS(=O)(=O)c5ccc(NC(CCN6CCC(C(=O)OCCCP(=O)(O)O)CC6)CSc6ccccc6)c(S(=O)(=O)C(F)(F)F)c5)cc4)CC3)c2)c(-c2ccc(Cl)cc2)n1C(C)C, the IC50 runs as follows: under setting [1], less than 3.16 nM; under setting [2], less than 3.16 nM; under setting [3], less than 3.16 nM; under setting [4], less than 3.16 nM; under setting [5], less than 3.16 nM. For the same compound, the viability, T/C by setting is: (second compound 0.1 µM, first compound 0.00316 µM) 11.9%; (second compound 0.1 µM, first compound 0.01 µM) 9.77%; under setting [6], 7.82%; under setting [7], 7.58%; under setting [8], 5.36%; under setting [9], 6.51%. Also, the viability, T/C is, setting by setting: (second compound 0.316 µM, first compound 0.00316 µM) 8.42%; (second compound 0.316 µM, first compound 0.01 µM) 7.07%; under setting [10], 8.09%; under setting [11], 5.52%; under setting [12], 3.69%; under setting [13], 5.21%. In addition, the viability, T/C was 7.09% (second compound 1 µM, first compound 0.00316 µM); 5.98% (second compound 1 µM, first compound 0.01 µM); 4.86% under setting [14]; 4.96% under setting [15]; 4.99% under setting [16]; 4.12% under setting [17]. Besides, the viability, T/C (second compound 3.16 µM, first compound 0.00316 µM) is 4.15%; the viability, T/C (second compound 3.16 µM, first compound 0.01 µM) was 4.41%; the viability, T/C under setting [18] is 3.7%; the viability, T/C under setting [19] was 4.89%; the viability, T/C under setting [20] is 2.21%; the viability, T/C under setting [21] is 3.61%. For the same compound, the viability, T/C was 5.31% (second compound 10 µM, first compound 0.00316 µM); 4.19% (second compound 10 µM, first compound 0.01 µM); 2.98% under setting [22]; 3.4% under setting [23]; 2.94% under setting [24]; 2.34% under setting [25].
For `O=C(c1ccc(F)c(F)c1Nc1ccc(I)cc1F)N1CC(O)([C@@H]2CCCCN2)C1`, the viability, T/C was 91.5% and 92.7% and 97.3% (compound 0.00316 µM); 76.6% and 84.3% and 100% (compound 0.01 µM); 91.3% and 70.7% and 83.2% (compound 0.0316 µM); 77.7% and 78.5% and 78% (compound 0.1 µM); 85% and 95.7% and 75.4% (compound 0.316 µM); 20.7% and 36.6% and 40.9% (compound 1 µM). In addition, the IC50 (curve of compound) is 589 nM and 729 nM and 730 nM.
Consider `CCN1C(C(=O)NC23CCC(C(=O)O)(CC2)CC3)C(c2cccc(Cl)c2F)C2(C(=O)Nc3cc(Cl)ccc32)C12CCCCC2` (centres undefined), for which the viability, T/C was 53.3% and 52.8% (compound 0.00949 µM); 38.3% [middle of 15 runs] (compound 0.03 µM); 21.1% [middle of 15 runs] (compound 0.0949 µM); 13% [middle of 15 runs] (compound 0.3 µM); 9.56% [middle of 15 runs] (compound 0.949 µM); 9.14% [middle of 15 runs] (compound 3 µM). For the same compound, the IC50 was less than 30 nM (compound alone, run of 10/11/2022); 17.8 nM and 11.6 nM (curve of compound).
`C#Cc1c(F)ccc2cc(O)cc(-c3ncc4c(N5CC6CCC(C5)N6)nc(OCC56CCCN5CC(F)C6)nc4c3F)c12` (centres undefined): the viability, T/C reads like this: (compound 0.0316 µM) 79.3% and 89.2% and 129%; (compound 0.1 µM) 74.3% and 82.3% and 122%; (compound 0.316 µM) 71.5% and 63.9% and 81.2%; (compound 1 µM) 91.2% and 75.4% and 66.3%; (compound 3.16 µM) 87.4% and 64.3% and 106%; (compound 10 µM) 43.4% and 60.4% and 67.7%. Besides, under “curve of compound”, the IC50 is 8120 nM and > 10000 nM.
Take `O=C(c1cc(Cc2n[nH]c(=O)c3ccccc23)ccc1F)N1CCN(C(=O)C2CC2)CC1` + Cc1c(S(C)(=O)=O)c(-c2cc(F)cc(N3CCN(c4ccc(NS(=O)(=O)c5ccc(NC(CCN6CCC(C(=O)OCCCP(=O)(O)O)CC6)CSc6ccccc6)c(S(=O)(=O)C(F)(F)F)c5)cc4)CC3)c2)c(-c2ccc(Cl)cc2)n1C(C)C: the IC50 runs as follows: under setting [1], less than 31.6 nM; under setting [2], less than 31.6 nM; under setting [3], less than 31.6 nM; under setting [4], less than 31.6 nM; under setting [5], less than 31.6 nM. In addition, the viability, T/C reads like this: under setting [6], 14.8%; under setting [7], 14.2%; under setting [8], 14.6%; under setting [9], 17.6%; (second compound 0.1 µM, first compound 3.16 µM) 18.5%; (second compound 0.1 µM, first compound 10 µM) 13.5%. Also, the viability, T/C was 9.83% under setting [10]; 9.85% under setting [11]; 10.5% under setting [12]; 10.7% under setting [13]; 16.4% (second compound 0.316 µM, first compound 3.16 µM); 9.72% (second compound 0.316 µM, first compound 10 µM). Besides, the viability, T/C by setting is: under setting [14], 8.79%; under setting [15], 10.4%; under setting [16], 9.85%; under setting [17], 8.8%; (second compound 1 µM, first compound 3.16 µM) 11%; (second compound 1 µM, first compound 10 µM) 8.8%. Further, the viability, T/C under setting [18] is 6.37%; the viability, T/C under setting [19] is 7.47%; the viability, T/C under setting [20] is 8.14%; the viability, T/C under setting [21] is 5.82%; the viability, T/C (second compound 3.16 µM, first compound 3.16 µM) is 8%; the viability, T/C (second compound 3.16 µM, first compound 10 µM) was 7.02%. Moreover, the viability, T/C reads like this: under setting [22], 4.38%; under setting [23], 4.61%; under setting [24], 6.78%; under setting [25], 4.36%; (second compound 10 µM, first compound 3.16 µM) 5.03%; (second compound 10 µM, first compound 10 µM) 5.76%.
